Assays:
[1] = test system: NIH3T3 cells expressing AcGFP-PDE5A fusions; test: FACS analysis of C-terminal PDE5A mutants (AcGFP-PDE5A fusions), Sildenafil vs vehicle; format: cell-based, mouse; conditions: for Mean Fluorescence intensity: NIH3T3; for Stabilization ratio: Sildenafil 10 μM vs vehicle alone; for basal expression in the absence of ligand (in words): extended PDE5A variants, NIH3T3, no Sildenafil
Description: (§1) The NIH3T3 cell line was cultured in DMEM supplemented with 10% heat-inactivated donor bovine serum (Invitrogen), 2 mM glutamine, 100 U/ml penicillin and 100 μg/ml streptomycin.
(§2) The ΦNX ecotropic packaging cell line was transfected using standard Lipofectamine 2000 protocols. Viral supernatants were harvested 48 hours, post transfection, filtered and concentrated 10-fold using Amicon Ultra centrifugal filter device with a 100kDa cutoff. NIH 3T3 cells were incubated with concentrated retroviral supernatants supplemented with 4 μg/ml polybrene for 4 hours at 37° C. Cells were washed once with PBS and cultured in growth media for 24-36 hours to allow for viral integration.
(§3) The transduced NIH3T3 cells were subjected to analysis using fluorescence-activated cell sorting (FACS) to screen the libraries of PDE5A mutants. 24 hours prior to analysis, transduced NIH3T3 cells were plated at 1×10^5 cells per well of a 12-well plate. Cells were removed from the plate using PBS and 2 mM EDTA, washed once with PBS, and resuspended in 200 μL, PBS. FACS analysis was performed on instruments at the Stanford Shared FACS Facility with 10,000 events represented.
(§4) To identify destabilizing domains that are responsive to the PDE5A ligand, Sildenafil, a cell-based screening assay was employed in which the fluorescence of green fluorescent protein derived from Aequorea coerulescens (AcGFP) served as an indicator of PDE5A stability. A library based on the PDE5A catalytic domain sequences was generated using error prone PCR and then cloned in-frame in front of AcGFP. A Moloney murine leukemia retroviral expression was used to stably integrate this library of PDE5A-AcGFP fusions into NIH-3T3 fibroblasts, and the transduced cells were subjected to three rounds of sorting using flow cytometry. In the first round, cells were treated with 10 μM of PDE5A ligand, Sildenafil for 16-24 before analysis. Fluorescent cells were collected and further cultured in the absence of ligand for 60 hours.
(§5) A library of AcGFP-PDE5A fusions i.e., C-terminal PDE5A mutants was screened using the cell-based screening assay described previously to identify C-terminal destabilizing domains. […] Identified candidates were subjected to further characterization by FACS. Cells were split into two treatment groups and incubated with either Sildenafil (10 μM) or vehicle alone for 24 hours. Cells that were mock transduced or transduced with the wild-type PDE5A construct were also included in the analysis. The stabilization ratio was calculated as the fold change in GFP intensity of the AcGFP-PDE5A construct in Sildenafil treated sample compared to vehicle alone treated sample. The results are presented in Table 2 where the C terminal PDE5A mutants are denoted as PDE5AC.
Residue D764 was identified as a mutational hotspot from sequence analysis. PDE5AC (#41) was engineered with either D764N or D764G mutation via site-directed mutagenesis. PDE5AC (#41) +D764N comprises the amino acid sequence of SEQ ID NO. 53 (encoded by SEQ ID NO. 54) and PDE5AC (#41) +D764G comprises the amino acid sequence of SEQ ID NO. 55 (encoded by SEQ ID NO. 56). AcGFP-PDE5A variants were evaluated for Sildenafil dependent stabilization via FACS as described previously. Results from FACS analysis are presented in Table 4 where the C terminal PDE5A mutants are denoted as PDE5AC. The stabilization ratio was calculated as the fold change in GFP intensity of the AcGFP-PDE5A construct in Sildenafil treated sample compared to vehicle alone treated sample.
Extended versions of human PDE5A that included residues in addition to catalytic domain (residues 535-860 of SEQ ID NO. 1) with Q589R polymorphism (SEQ ID NO. 11) were evaluated for use as C-terminal destabilizing domains. Three extended PDE5A sequences were tested that consisted of residues 535-875 of SEQ ID NO. 1 with Q589R polymorphism (SEQ ID NO. 13); residues 466-875 of SEQ ID NO. 1 with Q589R polymorphism (SEQ ID NO. 15); or residues 420-875 of SEQ ID NO. […]

PDE5A-AcGFP fusions = test: FACS analysis of N-terminal PDE5A mutants (PDE5A-AcGFP fusions), Sildenafil vs vehicle; format: cell-based, mouse; conditions: 24 hours; for Stabilization ratio: Sildenafil 20 μM vs vehicle alone; for Mean Fluorescence Intensity (MFI) Sildenafil (20 μM) / Mean Fluorescence Intensity (MFI) Vehicle control: NIH3T3; for Mean Fluorescence Intensity (MFI) Vehicle control: vehicle alone
Description: as §1, §2, §3, §4
as §5, with “PDE5A-AcGFP” for “AcGFP-PDE5A”, “N-terminal” for “C-terminal”, “mutants,” for “mutants”, “(20” for “(10”, “The results are presented in Table 6 where the N terminal PDE5A mutants are denoted as PDE5AN. The” for “The”, “sample.” for “sample. The results are presented in Table 2 where the C terminal PDE5A mutants are denoted as PDE5AC.”

[2] = Table 5 (extended variants), Sildenafil (10 μM) +
[3] = Table 5 (extended variants), Sildenafil (10 μM) −
[4] = Table 2, Sildenafil (10 μM) +, 24 hours
[5] = Table 2, Sildenafil (10 μM) −, vehicle alone, 24 hours
[6] = Table 2, fold change in GFP intensity, 24 hours
[7] = Table 4 (D764 mutations), Sildenafil (10 μM) +
[8] = Table 4 (D764 mutations), Sildenafil (10 μM) −

Substance: PDE5AC 420-875 (Q589R): AcGFP fused to residues 420-875 of SEQ ID NO. 1 with Q589R polymorphism, SEQ ID NO. 17
- Mean Fluorescence intensity [1, 2]: 572
- Mean Fluorescence intensity [1, 3]: 620
- Stabilization ratio ([1]; Table 5): 0.9
- basal expression in the absence of ligand (in words) [1]: low basal expression

Substance: PDE5AC 466-875 (Q589R): AcGFP fused to residues 466-875 of SEQ ID NO. 1 with Q589R polymorphism, SEQ ID NO. 15
- Mean Fluorescence intensity [1, 2]: 888
- Mean Fluorescence intensity [1, 3]: 819
- Stabilization ratio ([1]; Table 5): 1.1
- basal expression in the absence of ligand (in words) [1]: low basal expression

Substance: PDE5AC 535-860 (Q589R): AcGFP fused to PDE5A catalytic domain residues 535-860 with Q589R polymorphism, SEQ ID NO. 11 [reference compound]
- Mean Fluorescence intensity [1, 2]: 8557
- Mean Fluorescence intensity [1, 3]: 8431
- Stabilization ratio ([1]; Table 5): 1.0
- basal expression in the absence of ligand (in words) [1]: high basal expression

Substance: PDE5AC 535-875 (Q589R): AcGFP fused to residues 535-875 of SEQ ID NO. 1 with Q589R polymorphism, SEQ ID NO. 13
- Mean Fluorescence intensity [1, 2]: 6462
- Mean Fluorescence intensity [1, 3]: 6761
- Stabilization ratio ([1]; Table 5): 1.0
- basal expression in the absence of ligand (in words) [1]: high basal expression

Substance: PDE5AC (#8): AcGFP fused to C-terminal DD 535-860 of PDE5A (F561L, F564L, Q589R, D724N, S766F, T802P), SEQ ID NO. 34
- Mean Fluorescence intensity [1, 4]: 3310
- Mean Fluorescence intensity [1, 5]: 1066
- Stabilization ratio [1, 6]: 3.1

Substance: PDE5AC (#40): AcGFP fused to C-terminal DD 535-860 of PDE5A (Q589R, D764G), SEQ ID NO. 26
- Mean Fluorescence intensity [1, 4]: 5923
- Mean Fluorescence intensity [1, 5]: 1255
- Stabilization ratio [1, 6]: 4.7
- Mean Fluorescence intensity [1, 7]: 4229
- Mean Fluorescence intensity [1, 8]: 917
- Stabilization ratio ([1]; Table 4): 4.6

Substance: PDE5AC (#41) + D764G: PDE5AC (#41) engineered with D764G mutation, SEQ ID NO. 55
- Mean Fluorescence intensity [1, 7]: 730
- Mean Fluorescence intensity [1, 8]: 709
- Stabilization ratio ([1]; Table 4): 1.0

Substance: PDE5AC (#41) + D764N: PDE5AC (#41) engineered with D764N mutation, SEQ ID NO. 53
- Mean Fluorescence intensity [1, 7]: 1007
- Mean Fluorescence intensity [1, 8]: 684
- Stabilization ratio ([1]; Table 4): 1.5

Substance: PDE5AN (#19): N-terminal DD 535-860 of PDE5A (Q589R, I599V, T711A, F744L, L746S, L804P), SEQ ID NO. 31, fused to AcGFP
- Stabilization ratio (PDE5A-AcGFP fusions): 2.86
- Mean Fluorescence Intensity (MFI) Sildenafil (20 μM) (PDE5A-AcGFP fusions): 4297
- Mean Fluorescence Intensity (MFI) Vehicle control (PDE5A-AcGFP fusions): 1502

Substance: PDE5AN (#30): N-terminal DD 535-860 of PDE5A (Q589R, L675P, F755L), SEQ ID NO. 69, fused to AcGFP
- Stabilization ratio (PDE5A-AcGFP fusions): 4.46
- Mean Fluorescence Intensity (MFI) Sildenafil (20 μM) (PDE5A-AcGFP fusions): 4713
- Mean Fluorescence Intensity (MFI) Vehicle control (PDE5A-AcGFP fusions): 1056

Substance: PDE5AN (#35): N-terminal DD 535-860 of PDE5A (S560G, V585A, N587S, Q589R, K591E, S663P, F840S), SEQ ID NO. 32, fused to AcGFP
- Stabilization ratio (PDE5A-AcGFP fusions): 2.50
- Mean Fluorescence Intensity (MFI) Sildenafil (20 μM) (PDE5A-AcGFP fusions): 3684
- Mean Fluorescence Intensity (MFI) Vehicle control (PDE5A-AcGFP fusions): 1476

Substance: PDE5AN (#55): N-terminal DD 535-860 of PDE5A (Q589R, I648V, M816T), SEQ ID NO. 33, fused to AcGFP
- Stabilization ratio (PDE5A-AcGFP fusions): 2.87
- Mean Fluorescence Intensity (MFI) Sildenafil (20 μM) (PDE5A-AcGFP fusions): 3602
- Mean Fluorescence Intensity (MFI) Vehicle control (PDE5A-AcGFP fusions): 1257

Substance: PDE5AN (#57): N-terminal DD 535-860 of PDE5A (N587S, Q589R, K608E, N661S, D764V), SEQ ID NO. 68, fused to AcGFP
- Stabilization ratio (PDE5A-AcGFP fusions): 7.6
- Mean Fluorescence Intensity (MFI) Sildenafil (20 μM) (PDE5A-AcGFP fusions): 5851
- Mean Fluorescence Intensity (MFI) Vehicle control (PDE5A-AcGFP fusions): 770

— patent publication US11891634B2, “PDE5A destabilizing domains” (The Board of Trustees of the Leland Stanford Junior …, priority 2017, dated 2024)
